Reference: US20100292135A1 (priority 2005, published 2010)

Legend:
[1] = system: wild type (AB1157) bacteria; assay: Development of chloramphenicol resistance (mean latency time, OD600 growth); type: cell-based; conditions: in the presence of RecA
[2] = system: RecA-dependent SOS induction in GY7313 cells; assay: SOS induction by MMC in permeabilized E. coli (sfi-lacZ reporter, β-galactosidase); type: cell-based; conditions: MMC-induced
[3] = target: T1, RecA protein (Escherichia coli, UniProt P0A7G6); type: biochemical, E. coli
T1 sequence (P0A7G6 2-353): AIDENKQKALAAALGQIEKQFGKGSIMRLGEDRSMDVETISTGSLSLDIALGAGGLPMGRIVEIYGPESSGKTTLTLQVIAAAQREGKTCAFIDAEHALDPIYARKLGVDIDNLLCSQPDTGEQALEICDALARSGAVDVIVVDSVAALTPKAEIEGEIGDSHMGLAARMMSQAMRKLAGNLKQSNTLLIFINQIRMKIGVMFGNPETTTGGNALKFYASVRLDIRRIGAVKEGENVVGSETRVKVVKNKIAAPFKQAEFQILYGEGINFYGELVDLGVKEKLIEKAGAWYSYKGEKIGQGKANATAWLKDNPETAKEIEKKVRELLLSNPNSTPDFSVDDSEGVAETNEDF

[4] = target: T1, RecA protein; assay: biochemical; type: binding, E. coli
[5] = target: T1, RecA protein; conditions: cited from earlier work

NCCCCNCCCN [spermidine]
effect on chloramphenicol resistance development [1]: retards resistance development

O=P(O)(O)OP(=O)(O)OC[C@H]1O[C@@H](n2cnc3c(Nc4cccc5ccccc45)ncnc32)[C@H](O)[C@@H]1O [Compound 1, N^6-(1-Naphthyl)-Adenosine-5′-O-Diphosphate]
inhibition of SOS induction (β-galactosidase) [2]: significantly inhibits SOS induction

O[C@@H](CS)[C@@H](O)CS [L-DTT, 1,4-dithio-L-threitol]
inhibition of RecA ATPase activity (in words) [3]: no inhibition

CCOS(C)(=O)=O [EMS]
effect on chloramphenicol resistance development [1]: speed resistance development

Nc1ncnc2c1ncn2[C@@H]1O[C@H](COP(=O)(O)OP(=O)(O)O)[C@@H](O)[C@H]1O [ADP, adenosine diphosphate]
Kd [4]: 84 ± 27 µM

Nc1ncnc2c1ncn2[C@@H]1O[C@H](COP(=O)(O)OP(=O)(O)OP(=O)(O)O)[C@@H](O)[C@H]1O [ATP, adenosine triphosphate]
Hill coefficient nH [3]: 3
Michaelis constant S0.5 for RecA and ATP [3]: 47 µM
S0.5 for ATP, reported literature values [5]: 40 to 45 µM
